The values below come from patent US7504362B2, “Pesticidal compositions” (Merial Limited, priority 2002, dated 2009).

Structures are written as SMILES.

For this assay, the system named is Ctenocephalides felis, Diabrotica undecimpunctata, Nephotettix cincticeps or Rhipicephalus sanguineus. Nature of the assay: Pooled statement: active in one or more of the above tests (Methods A to E). The note with it: active = reaching the threshold of Method A, B, C, D or E; test not given per compound. It counts as in vivo. As for the experimental part: The following representative test procedures, using compounds of the invention, were conducted to determine the parasiticidal and pesticidal activity of compounds of the invention.
A test container was filled with 10 adults of Ctenocephalides felis. A glass cylinder was closed on one end with parafilm and placed on top of the test container. The test compound solution was then pipetted into bovine blood and added to the glass cylinder. The treated Ctenocephalides felis were held in this artificial dog test (blood 37° C., 40-60% relative humidity; Ctenocephalides felis 20-22° C., 40-60% relative humidity) and assessment performed at 24 and 48 hours after application. Active compounds gave at least 90% control of Ctenocephalides felis at a test concentration of 5 ppm or less.
Two days before application, seeds of maize were soaked in water under warm conditions to elicit fast germination. One day before application, eggs of Diabrotica undecimpunctata were transferred to one half of a Japanese filter paper placed in a plastic petri dish. Afterwards, a sprouted maize seed was placed on a moistened pad beside the filter paper. Three drops of 200 microliters of test compound solution were carefully pipetted onto the egg. The remainder of the solution was placed on the maize and then the Petri dish was closed. The treated eggs in the Petri dishes were held in a climate chamber for 6 days. The compound efficacy (percentage of dead eggs and/or larvae in comparison to untreated control) was assessed 6 days after application using a binocular microscope.
Active compounds gave at least 90% control of Diabrotica undecimpunctata at a test concentration of 10 ppm.
The leaves of 12 rice plants having a stem length of 8 cm were dipped for 5 seconds into an aqueous solution of the formulated test compound. After the solution had run off, the rice plants treated in this manner were placed in a Petri dish and populated with about 20 larvae (L3 stage) of Nephotettix cincticeps. The Petri dish was closed and then stored in a climate chamber (16 hours of light/day, 25° C., 40-60% relative humidity). After 6 days storage, the percentage mortality of leafhopper larvae was determined.
Active compounds gave at least 98% mortality of Nephotettix cinciceps larvae at a test concentration of 100 ppm.
Solutions of the test compounds were dropped onto filter paper, dried and the filter paper placed into test tubes and infested with 10 adults of Ctenocephalides felis. The treated Ctenocephalides felis were held in a climate chamber (26° C., 80% RH) and the percentage efficacy assessed 24 hours and 48 hours after application in comparison with the untreated control.
Active compounds gave at least 70% contact control of Ctenocephalides felis at a test concentration of 1000 ppm.
Solutions of the test compounds were dropped onto filter paper, dried and the filter paper placed into test tubes and infested with 20-30 larvae (L1) of Rhipicephalus sanguineus and the tubes closed with a clip. The treated Rhipicephalus sanguineus were held in a climate chamber (25° C., 90% RH) and the percentage efficacy assessed 24 hours after application in comparison with the untreated control. Active compounds gave at least 70% contact control of Rhipicephalus sanguineus at a test concentration of 100 ppm.
In the case of `CN(c1c([S+]([O-])C(F)(F)F)c(C#N)nn1-c1c(Cl)cc(C(F)(F)F)cc1Cl)S(=O)(=O)C=Cc1ccccc1` (stereo not drawn) [Compound 1-114], the “active in one or more of the above tests” value is given as “active”. As for `CN(c1c(S(=O)(=O)C(F)(F)F)c(C#N)nn1-c1c(Cl)cc(C(F)(F)F)cc1Cl)S(=O)(=O)Cc1ccc(F)cc1` [Compound 2-121], the “active in one or more of the above tests” value is on record as “active”.

`CN(c1c([S+]([O-])C(F)(F)F)c(C#N)nn1-c1c(Cl)cc(C(F)(F)F)cc1Cl)S(=O)(=O)Cc1ccc(F)cc1` (stereo not drawn) [Compound 2-86]: the “active in one or more of the above tests” value is reported as “active”. Turning to `CN(c1c(S(=O)(=O)C(F)(F)F)c(C#N)nn1-c1c(Cl)cc(C(F)(F)F)cc1Cl)S(=O)(=O)Cc1cc(Cl)cc(Cl)c1` [Compound 2-151], the “active in one or more of the above tests” value is “active”. To `CN(c1c(S(=O)(=O)C(F)(F)F)c(C#N)nn1-c1c(Cl)cc(C(F)(F)F)cc1Cl)S(=O)(=O)CCCCl` [Compound 1-121, 1-(2,6-Dichloro-4-trifluoromethylphenyl)-5-[N-(3-chloropropylsulfonyl)-N-methylamino]-3-cyano-4-trifluoromethylsulfonylpyrazole] belongs “active”; to `CN(c1c([S+]([O-])C(F)(F)F)c(C#N)nn1-c1c(Cl)cc(C(F)(F)F)cc1Cl)S(=O)(=O)c1ccccc1Cl` (stereo not drawn) [Compound 5-46], “active”. For `CCCCCCCCCS(=O)(=O)N(C)c1c(SC(F)(F)F)c(C#N)nn1-c1c(Cl)cc(C(F)(F)F)cc1Cl` [Compound 1-124], the “active in one or more of the above tests” value is “active”.

Regarding `CN(c1c([S+]([O-])C(F)(F)F)c(C#N)nn1-c1c(Cl)cc(C(F)(F)F)cc1Cl)S(=O)(=O)c1cc(Cl)cc(Cl)c1` (stereo not drawn) [Compound 5-87], the “active in one or more of the above tests” value is “active”. Consider `CN(c1c([S+]([O-])C(F)(F)F)c(C#N)nn1-c1c(Cl)cc(C(F)(F)F)cc1Cl)S(=O)(=O)Cc1ccccc1` (stereo not drawn) [Compound 2-16, 1-(2,6-Dichloro-4-trifluoromethylphenyl)-3-cyano-5-(N-benzylsulfonyl-N-methylamino)-4-trifluoromethylsulfinylpyrazole], for which the “active in one or more of the above tests” value is “active”.

On to `CN(c1c([S+]([O-])C(F)(F)F)c(C#N)nn1-c1c(Cl)cc(C(F)(F)F)cc1Cl)S(=O)(=O)C(Cl)Cl` (stereo not drawn) [Compound 1-119], for which the “active in one or more of the above tests” value is listed as “active”.

Regarding `CN(c1c([S+]([O-])C(F)(F)F)c(C#N)nn1-c1c(Cl)cc(C(F)(F)F)cc1Cl)S(=O)(=O)c1ccccc1` (stereo not drawn) [Compound 5-81], the “active in one or more of the above tests” value was “active”.

For the compound `CN(c1c(SC(F)(F)F)c(C#N)nn1-c1c(Cl)cc(C(F)(F)F)cc1Cl)S(=O)(=O)c1cccc(C(F)(F)F)c1` [Compound 5-15], the “active in one or more of the above tests” value was “active”.

Regarding `CN(c1c([S+]([O-])C(F)(F)F)c(C#N)nn1-c1c(Cl)cc(C(F)(F)F)cc1Cl)S(=O)(=O)Cc1cc(Cl)cc(Cl)c1` (stereo not drawn) [Compound 2-150], the “active in one or more of the above tests” value is “active”.

As for `C=CS(=O)(=O)N(C)c1c([S+]([O-])C(F)(F)F)c(C#N)nn1-c1c(Cl)cc(C(F)(F)F)cc1Cl` (stereo not drawn) [Compound 1-97], the “active in one or more of the above tests” value is recorded as “active”.

For the compound `CS(=O)(=O)Nc1c(SC(F)(F)F)c(C#N)nn1-c1c(Cl)cc(C(F)(F)F)cc1Cl` [Compound 1-1], the “active in one or more of the above tests” value is “active”. In the case of `CCS(=O)(=O)Nc1c([S+]([O-])C(F)(F)F)c(C#N)nn1-c1c(Cl)cc(C(F)(F)F)cc1Cl` (stereo not drawn) [Compound 1-117], the “active in one or more of the above tests” value was “active”. In the case of `CN(c1c(SC(F)(F)F)c(C#N)nn1-c1c(Cl)cc(C(F)(F)F)cc1Cl)S(=O)(=O)Cc1ccc(Cl)cc1` [Compound 2-45], the “active in one or more of the above tests” value is “active”.

Take `CN(c1c(SC(F)(F)F)c(C#N)nn1-c1c(Cl)cc(C(F)(F)F)cc1Cl)S(=O)(=O)c1ccc(C(F)(F)F)cc1` [Compound 5-16]: the “active in one or more of the above tests” value was “active”.

As for `CN(c1c(SC(F)(F)F)c(C#N)nn1-c1c(Cl)cc(C(F)(F)F)cc1Cl)S(=O)(=O)Cc1ccc(C(F)(F)F)cc1` [Compound 2-58], the “active in one or more of the above tests” value is recorded as “active”. On to `COC(=O)c1ccc(I)cc1S(=O)(=O)N(C)c1c([S+]([O-])C(F)(F)F)c(C#N)nn1-c1c(Cl)cc(C(F)(F)F)cc1Cl` (stereo not drawn) [Compound 5-86], for which the “active in one or more of the above tests” value is “active”.

Turning to `CN(c1c(SC(F)(F)F)c(C#N)nn1-c1c(Cl)cc(C(F)(F)F)cc1Cl)S(=O)(=O)Cc1ccc(Cl)c(Cl)c1` [Compound 2-48], the “active in one or more of the above tests” value is “active”.
